The source of these data is article PMC9356275, “A quantitative high-throughput screen identifies compounds that lower expression of the SCA2-and ALS-associated gene ATXN2” (The Journal of Biological Chemistry, 2022).

Data set [1] has as its system ATXN2-luc. The data set is described as follows: MSSR pilot screen: ATXN2-luc luciferase assay (Bright-Glo) in H2 cells, single 10 μM dose. The data set is classed as cell-based, human. The settings on record: for SD from mean (ATXN2-luc, Z-score): H2 cells, single dose (title: 10 μM compound), overnight; for ¦Score/1SD¦: absolute score divided by 1SD (0.891 or 0.9).
The test system of data set [2] is CMV-luc. As to the kind of experiment: MSSR counterscreen: CMV-luc expression in HC cells. The class given is cell-based, human. The settings on record: for CMV-luc, averages as percent of no compound control: HC cells, n=4 wells.
Data set [3] deals with ATXN2-luc. The data set is described as follows: MSSR hit retest: ATXN2-luc luciferase assay, average of H2 and S1 cells (1 and 10 uM). The settings on record: Homo sapiens, average of H2 and S1 cells; for activity at 1 µM: 1 uM compound, read-out: H2&S1 ave luc 1uM; for activity at 10 µM: head line r3 10uM, read-out: H2&S1 ave luc 10uM. The data set is classed as cell-based, human. The text has this: (§1) Supplement mmc2.xlsx, sheet "43 annotated compounds"

Another data set deals with H2 and S1 cells. As to the kind of experiment: Paired MTT viability assay, average of H2 and S1 cells (1 and 10 uM). The class given is cell-based, human. The settings on record: Homo sapiens; for viability at 1 µM: 1 uM compound, read-out: H2&S1 ave MTT 1uM; for viability at 10 µM: 10 uM compound, read-out: H2&S1 ave MTT 10uM.
Text: as §1
(Tetrazolium dyes change colour on reduction, which living cells bring about.)

The test system of data set [4] is ATXN2-luc. The data set is described as follows: NCATS qHTS (LOPAC pilot, primary and confirmation): ATXN2-luc in S2 cells, 1536-well, Steady-Glo. The class given is cell-based, human. The settings on record: for AC50: LOPAC library screening optimization. The method, boiled down: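 […] S2 cells expressing ATXN2-luc in phenol red–free DMEM screened in 1536-well qHTS format. Luciferase read by Steady-Glo luminescence after 5 min at room temperature (2 s exposure), multiplexed with CellTiter-Fluor viability.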
(In qHTS, concentration-response curves come from the screen itself.)

In data set [5] the test system is ATXN2-luc. The data set is described as follows: Secondary assays: ATXN2-luc in S2 and H2 cells, 12 doses, Bright-Glo. The data set is classed as cell-based, human. The settings on record: summary data; for IC50: Homo sapiens, ATXN2-luc luciferase assays in H2 and S2 cells, 12 doses plus a zero dose, read-out: Mean IC50; for min ATXN2-luc (%): minimum ATXN2-luc signal over 12 doses, H2 and S2 cells.

Data set [6] has as its system CMV-luc. The data set is described as follows: Secondary assays: CMV-luc in SC cells, Bright-Glo. The class given is cell-based, human. The settings on record: minimum CMV-luc signal in SC cells over 12 doses; summary data.
The next data set in a line: in vitro. The settings on record: human. As for the experimental part:
The values for H2 and S2 were used as replicates to calculate IC50s and to assess cell viability.
Compounds were plated at 2× concentrations in phenol red–free DMEM in 25 μl in 384-well plates with each compound dose plated in triplicate. An equal volume of S2, H2, or SC cells (24,000 cells/well) suspended in phenol red–free DMEM with 10% fetal bovine serum and 1× penicillin/streptomycin were added. Cells were grown 24 h and then assayed first by using the CellTiter-Fluor reagent (20 μl) followed by the addition of Bright-Glo (65 μl) luciferase assay, using a multimode plate reader (Beckman; DT880). Values were reported as the mean ± SD with n = 3. IC50s were determined by the Hill coefficient method using an online tool (https://www.aatbio.com/tools/ic50-calculator).

Where two headings read alike, the source gives them in different places. Bounds are passed on as bounds.

What is called inhibition is how much of the control response was suppressed. As to `COc1ccc(CN2CCN(C(c3ccc(F)cc3)c3ccc(F)cc3)CC2)c(OC)c1OC` [LOMERIZINE DiHCl], in the data set on ATXN2-luc [1], the “SD from mean (ATXN2-luc, Z-score)” value is given as -2.782 SD. In the data set on ATXN2-luc [1] (pilot screen), the “SD from mean (pilot screen)” value is recorded as -2.782 SD and the “¦Score/1SD¦” value is reported as 3.09. In the data set on ATXN2-luc [1] (pilot screen, H2 cells expressing ATXN2-luc, single dose printed as 10 μM compound), the “SD from mean (pilot screen)” value is reported as -2.782. For the same molecule, the “CMV-luc, averages as percent of no compound control” value with CMV-luc [2] (0.1 uM compound) is 97.7058% of no compound control. Moreover, in the data set on CMV-luc [2] (1 uM compound), the “CMV-luc, averages as percent of no compound control” value is given as 102.901% of no compound control. The “CMV-luc, averages as percent of no compound control” value in the data set on CMV-luc [2] (10 uM compound) is recorded as 80.3815% of no compound control. In addition, the inhibition at 1 µM in the data set with CMV-luc [2] (Homo sapiens, read-out: CMV-luc inhibition @ 1 uM) was 0%. The inhibition at 10 µM in the data set with CMV-luc [2] (Homo sapiens, read-out: CMV-luc inhibition @ 10 uM) was 20%. In addition, in the data set with CMV-luc [2] (summary call for the 12 pilot compounds tested on CMV-luc), the “ATXN2 luc activity (call)” value was “Unclear”. Moreover, in the data set with ATXN2-luc [3], the activity at 1 µM came to 102% and the activity at 10 µM is 55%. In addition, in the data set on H2 and S1 cells, the viability at 1 µM was 101% and the viability at 10 µM was 37.6%.
As a reminder, the AC50 is the concentration giving half of the maximal activity seen. A word on the IC50: it is the concentration at which inhibition is half-maximal. Regarding `C[C@@H]1O[C@@H](O[C@H]2C[C@@H](O)[C@]3(CO)[C@H]4[C@H](O)C[C@]5(C)[C@@H](C6=CC(=O)OC6)CC[C@]5(O)[C@@H]4CC[C@]3(O)C2)[C@H](O)[C@H](O)[C@H]1O` [OUABAIN], the “SD from mean (ATXN2-luc, Z-score)” value with ATXN2-luc [1] is given as -3.832 SD. In addition, in the data set with ATXN2-luc [1] (pilot screen), the “SD from mean (pilot screen)” value is -3.832 SD and the “¦Score/1SD¦” value is reported as 4.26. For the same molecule, the “SD from mean (pilot screen)” value in the data set with ATXN2-luc [1] (pilot screen at 10 µM compound, H2 cells expressing ATXN2-luc) is listed as -3.832. In addition, in the data set on ATXN2-luc [4] (Homo sapiens, logarithm of AC50 (negative values), read-out: Log AC50 (converted)), the AC50 was under 90 nM. Moreover, the AC50 in the data set with ATXN2-luc [4] (Homo sapiens, read-out: AC50) is under 90 nM. The “Curve Class” value with ATXN2-luc [4] (LOPAC library (1,280 compounds) screening optimization, signed sub-classes (-1.1, -2.2, -3 ...)) is on record as -1.1. Also, in the data set on ATXN2-luc [4] (read-out: AC50), the AC50 was determined as 112 nM. For the same molecule, in the data set with ATXN2-luc [5], the IC50 was determined as 122 nM and the “min ATXN2-luc (%)” value was 6.982%. In the data set with CMV-luc [6], the “min SC luc (%)” value is listed as 122.219%. Moreover, the viability at 24 h in the data set “in vitro” stood at 74.3%. For the same molecule, in the data set on ATXN2-luc [3], the activity at 1 µM amounted to 14% and the activity at 10 µM turned out to be 12%. In addition, in the data set with H2 and S1 cells, the viability at 1 µM came out at 51.8% and the viability at 10 µM is 60.4%.
Consider `O=C1NC(=O)/C(=C/c2ccc3nccc(-c4ccncc4)c3c2)S1` [NCGC00346509-01, GSK 1059615], for which, in the data set on ATXN2-luc [5], the IC50 came out at 57500 nM and the “min ATXN2-luc (%)” value was found to be 51.4419%. Besides, the “min SC luc (%)” value with CMV-luc [6] turned out to be 85.5514%. In addition, the viability at 24 h in the data set “in vitro” is 75.5%.
For `CC(C)c1cc(C(=O)N2Cc3ccc(CN4CCN(C)CC4)cc3C2)c(O)cc1O` [NCGC00346674-01, AT13387], in that order: 178 nM, 22.3111%, 71.1894% and 90.6%.
Regarding `N[C@@H](Cc1ccc(N(CCCl)CCCl)cc1)C(=O)O` [NCGC00090757-05, Melphalan], in the data set on ATXN2-luc [5], the “min ATXN2-luc (%)” value turned out to be 44.8372%. In addition, the “min SC luc (%)” value in the data set with CMV-luc [6] stood at 79.9664%. Also, the viability at 24 h in the data set “in vitro” amounted to 89.3%.
With `CNC(=O)c1nn(C)c2c1C(C)(C)Cc1cnc(Nc3ccc(N4CCN(C)CC4)cc3)nc1-2` [NCGC00346673-01, PHA-848125], in the data set on ATXN2-luc [5], the IC50 is 436 nM and the “min ATXN2-luc (%)” value is given as 15.8759%. Besides, in the data set with CMV-luc [6], the “min SC luc (%)” value was 96.2246%. Further, the viability at 24 h in the data set “in vitro” was determined as 74.4%.
